Source: PubChem BioAssay (NCI)
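Results reflect a 48-hour exposure of cells in 96-well plates to compound at five concentrations. GI50 marks 50% less growth. TGI is the concentration that stops growth completely.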

Experiments:
Experiment in all cases: NCI-60 cell line screen, 48 h
K-562 leukemia = test system: K-562 leukemia
EKVX NSCLC = test system: EKVX NSCLC
HCT-116 colon = test system: HCT-116 colon
HT29 colon = test system: HT29 colon
NCI/ADR-RES ovarian = test system: NCI/ADR-RES ovarian
OVCAR-4 ovarian = test system: OVCAR-4 ovarian
SF-268 CNS = test system: SF-268 CNS
A549 NSCLC = test system: A549 NSCLC
UACC-62 melanoma = test system: UACC-62 melanoma
NCI-H460 lung = test system: NCI-H460 lung
NCI-H226 lung = test system: NCI-H226 lung
SF-539 CNS = test system: SF-539 CNS
MOLT-4 leukemia = test system: MOLT-4 leukemia
SK-OV-3 ovarian = test system: SK-OV-3 ovarian
RPMI-8226 leukemia = test system: RPMI-8226 leukemia
SK-MEL-5 melanoma = test system: SK-MEL-5 melanoma
SW-620 colon = test system: SW-620 colon
HCC-2998 colon = test system: HCC-2998 colon
A498 renal = test system: A498 renal
RXF 393 renal = test system: RXF 393 renal
COLO 205 colon = test system: COLO 205 colon
MCF7 breast = test system: MCF7 breast
U251 CNS = test system: U251 CNS
HL-60(TB) leukemia = test system: HL-60(TB) leukemia
HOP-62 NSCLC = test system: HOP-62 NSCLC
SNB-19 CNS = test system: SNB-19 CNS
BT-549 breast = test system: BT-549 breast
SK-MEL-28 melanoma = test system: SK-MEL-28 melanoma
HOP-92 NSCLC = test system: HOP-92 NSCLC
MALME-3M melanoma = test system: MALME-3M melanoma
IGROV1 ovarian = test system: IGROV1 ovarian
M14 melanoma = test system: M14 melanoma
SF-295 CNS = test system: SF-295 CNS
NCI-H522 lung = test system: NCI-H522 lung
CCRF-CEM leukemia = test system: CCRF-CEM leukemia
786-0 renal = test system: 786-0 renal
PC-3 prostate = test system: PC-3 prostate
HS 578T breast = test system: HS 578T breast
HCT-15 colon = test system: HCT-15 colon
NCI-H23 lung = test system: NCI-H23 lung
MDA-MB-231 breast = test system: MDA-MB-231 breast
OVCAR-8 ovarian = test system: OVCAR-8 ovarian
UACC-257 melanoma = test system: UACC-257 melanoma
KM12 colon = test system: KM12 colon
MDA-MB-435 = test system: MDA-MB-435
OVCAR-5 ovarian = test system: OVCAR-5 ovarian
SNB-75 CNS = test system: SNB-75 CNS
SN12C renal = test system: SN12C renal
CAKI-1 renal = test system: CAKI-1 renal
T-47D breast = test system: T-47D breast
SK-MEL-2 melanoma = test system: SK-MEL-2 melanoma
DU-145 prostate = test system: DU-145 prostate
TK-10 renal = test system: TK-10 renal
LOX IMVI melanoma = test system: LOX IMVI melanoma
SR leukemia = test system: SR leukemia

## COc1ccc(-c2nnc(SCc3ccc(O)c4ncccc34)n2-c2ccccc2)cc1
K-562 leukemia
  GI50: 370 nM
  TGI: > 100000 nM
EKVX NSCLC
  GI50: 1050 nM
  TGI: 10300 nM
HCT-116 colon
  GI50: 361 nM
  TGI: 5400 nM
HT29 colon
  GI50: 4900 nM
  TGI: > 100000 nM
NCI/ADR-RES ovarian
  GI50: 290 nM
  TGI: 5700 nM
OVCAR-4 ovarian
  GI50: 739 nM
  TGI: > 100000 nM
SF-268 CNS
  GI50: 605 nM
  TGI: 56600 nM
A549 NSCLC
  GI50: 986 nM
  TGI: > 60000 nM
UACC-62 melanoma
  GI50: 1310 nM
  TGI: 4980 nM
NCI-H460 lung
  GI50: 385 nM
  TGI: 3310 nM
NCI-H226 lung
  GI50: 2460 nM
  TGI: 98000 nM
SF-539 CNS
  GI50: 605 nM
  TGI: 5040 nM
MOLT-4 leukemia
  GI50: 508 nM
  TGI: > 100000 nM
SK-OV-3 ovarian
  GI50: 745 nM
  TGI: 9230 nM
RPMI-8226 leukemia
  GI50: 493 nM
  TGI: > 100000 nM
SK-MEL-5 melanoma
  GI50: 720 nM
  TGI: 3560 nM
SW-620 colon
  GI50: 438 nM
  TGI: > 100000 nM
HCC-2998 colon
  GI50: 1190 nM
  TGI: > 100000 nM
A498 renal
  GI50: 2230 nM
  TGI: 12500 nM
RXF 393 renal
  GI50: 915 nM
  TGI: 11100 nM
COLO 205 colon
  GI50: 6710 nM
  TGI: > 100000 nM
MCF7 breast
  GI50: 395 nM
  TGI: > 100000 nM
U251 CNS
  GI50: 389 nM
  TGI: 13800 nM
HL-60(TB) leukemia
  GI50: 397 nM
  TGI: 3410 nM
HOP-62 NSCLC
  GI50: 1000 nM
  TGI: 16700 nM
SNB-19 CNS
  GI50: 553 nM
  TGI: > 40900 nM
BT-549 breast
  GI50: 572 nM
  TGI: 17000 nM
SK-MEL-28 melanoma
  GI50: 726 nM
  TGI: 31300 nM
HOP-92 NSCLC
  GI50: 231 nM
  TGI: 818 nM
MALME-3M melanoma
  GI50: 968 nM
  TGI: 5210 nM
IGROV1 ovarian
  GI50: 892 nM
  TGI: 25000 nM
M14 melanoma
  GI50: 451 nM
  TGI: 2500 nM
SF-295 CNS
  GI50: 449 nM
  TGI: 6840 nM
NCI-H522 lung
  GI50: 479 nM
  TGI: 11100 nM
CCRF-CEM leukemia
  GI50: 424 nM
  TGI: > 100000 nM
786-0 renal
  GI50: 891 nM
  TGI: 9810 nM
PC-3 prostate
  GI50: 526 nM
  TGI: 28300 nM
HS 578T breast
  GI50: 491 nM
  TGI: 10000 nM
HCT-15 colon
  GI50: 328 nM
  TGI: > 100000 nM
NCI-H23 lung
  GI50: 661 nM
  TGI: 30400 nM
MDA-MB-231 breast
  GI50: 922 nM
  TGI: 26700 nM
OVCAR-8 ovarian
  GI50: 447 nM
  TGI: 96900 nM
UACC-257 melanoma
  GI50: 1020 nM
  TGI: 10700 nM
KM12 colon
  GI50: 619 nM
  TGI: > 89000 nM
MDA-MB-435
  GI50: 468 nM
  TGI: > 100000 nM
OVCAR-5 ovarian
  GI50: 3960 nM
  TGI: > 100000 nM
SNB-75 CNS
  GI50: 951 nM
  TGI: 6130 nM
SN12C renal
  GI50: 468 nM
  TGI: > 100000 nM
CAKI-1 renal
  GI50: 637 nM
  TGI: 4290 nM
T-47D breast
  GI50: 929 nM
  TGI: 4200 nM
SK-MEL-2 melanoma
  GI50: 1160 nM
  TGI: 6710 nM
DU-145 prostate
  GI50: 637 nM
  TGI: > 53500 nM
TK-10 renal
  GI50: 870 nM
  TGI: 7510 nM
LOX IMVI melanoma
  GI50: 478 nM
  TGI: 2620 nM
SR leukemia
  GI50: 371 nM
  TGI: > 100000 nM

## NC(N)=Nc1ccc(Oc2cccc(Oc3ccc(Cl)c(C(F)(F)F)c3)c2)cn1
RXF 393 renal
  GI50: 1790 nM
  TGI: 3430 nM
SNB-75 CNS
  GI50: 1330 nM
  TGI: 2670 nM
